Assay results reported in patent publication US12275733B2, “Substituted pyrido[3,4-b]indoles for the treatment of cartilage disorders” (Sanofi, priority 2016, dated 2025).

Tested on: ATDC5 cells
Test: Chondrogenesis activity assay in ATDC5 cells (collagen type II induction, immunofluorescence)
Assay type: cell-based, mouse
Conditions: Mus musculus; for EC50: collagen type II induction in ATDC5 cells, concentration reaching 50% of maximum induction; for Emax: maximum percent induction of collagen type II relative to internal reference compound at 10 μM, ATDC5 cells
Summary of the method: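 Mouse ATDC5 cells in insulin (10 μg/ml)-containing DMEM/F12 differentiation medium with 5% FCS were exposed to compound, typically 40 nM–10 μM at 0.1% DMSO, for 4 days at 37 °C. Intracellular collagen type II was quantified by Alexa Fluor 488 immunostaining with high-content imaging, relative to DMSO and a 10 μM reference compound.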

| Compound | EC50 [nM] | Emax [%] |
| --- | --- | --- |
| CC(C)c1nccc2c1[nH]c1c(-c3ccc(Cl)nc3Cl)cc(Cl)cc12 [Example 106, 6-Chloro-8-(2,6-dichloro-pyridin-3-yl)-1-isopropyl-9H-pyrido[3,4-b]indole] | > 10000 | 20 to 50 |
| Cc1nccc2c1[nH]c1c(-c3ccc(-n4ccccc4=O)nc3)cc(Cl)cc12 [Example 107, 5′-(6-Chloro-1-methyl-9H-pyrido[3,4-b]indol-8-yl)-[1,2′]bipyridinyl-2-one] | 560 | 20 to 50 |
| Cc1cc(-c2ccc(Cl)nc2Cl)c2[nH]c3c(C)nccc3c2c1 [Example 108, 8-(2,6-Dichloro-pyridin-3-yl)-1,6-dimethyl-9H-pyrido[3,4-b]indole] | 1400 | > 80 |
| Cc1nccc2c1[nH]c1c(-c3ccc(N4CCNC(=O)C4)nc3)cc(Cl)cc12 [Example 109, 4-[5-(6-Chloro-1-methyl-9H-pyrido[3,4-b]indol-8-yl)-pyridin-2-yl]-piperazin-2-one] | 720 | 50 to 80 |
| Cc1nccc2c1[nH]c1c(-c3ccc(N4CCOC4=O)nc3)cc(Cl)cc12 [Example 110, 3-[5-(6-Chloro-1-methyl-9H-pyrido[3,4-b]indol-8-yl)-pyridin-2-yl]-oxazolidin-2-one] | > 10000 | 20 to 50 |
| COCCn1c2cnccc2c2cc(Cl)cc(-c3ccc(Cl)nc3Cl)c21 [Example 111, 6-Chloro-8-(2,6-dichloro-pyridin-3-yl)-9-(2-methoxy-ethyl)-9H-pyrido[3,4-b]indole] | 1800 | 50 to 80 |
| FC(F)(F)Cn1c2cnccc2c2cc(Cl)cc(-c3cnn(Cc4ccncc4)c3)c21 [Example 112, 6-Chloro-8-(1-pyridin-4-ylmethyl-1H-pyrazol-4-yl)-9-(2,2,2-trifluoro-ethyl)-9H-pyrido[3,4-b]indole] | 490 | > 80 |
| COc1ccc(-c2cc(Cl)cc3c2[nH]c2c(C)nccc23)c(N)n1 [Example 113, 3-(6-Chloro-1-methyl-9H-pyrido[3,4-b]indol-8-yl)-6-methoxy-pyridin-2-ylamine] | 780 | > 80 |
| Cn1c(-c2cc(Cl)cc3c4ccncc4n(CC(F)(F)F)c23)cnc1Cl [Example 114, 6-Chloro-8-(2-chloro-3-methyl-3H-imidazol-4-yl)-9-(2,2,2-trifluoro-ethyl)-9H-pyrido[3,4-b]indole] | 5700 | 20 to 50 |
| Cc1nccc2c1[nH]c1c(-c3cnn(Cc4cccnc4)c3)cc(Cl)cc12 [Example 115, 6-Chloro-1-methyl-8-(1-pyridin-3-ylmethyl-1H-pyrazol-4-yl)-9H-pyrido[3,4-b]indole] | 490 | > 80 |
| CSc1ccc(-c2cc(Cl)cc3c2[nH]c2c(C)nccc23)cn1 [Example 120, 6-Chloro-1-methyl-8-(6-methylsulfanyl-pyridin-3-yl)-9H-pyrido[3,4-b]indole] | 1400 | 50 to 80 |
| CCn1c2c(-c3cnn(Cc4ccc(C)nc4C)c3)cc(Cl)cc2c2ccnc(C)c21 [Example 121, 6-Chloro-8-[1-(2,6-dimethyl-pyridin-3-ylmethyl)-1H-pyrazol-4-yl]-9-ethyl-1-methyl-9H-pyrido[3,4-b]indole] | 590 | > 80 |
| CCn1c2cnccc2c2cc(Cl)cc(-c3ccncc3)c21 [Example 123, 6-Chloro-9-ethyl-8-pyridin-4-yl-9H-pyrido[3,4-b]indole] | 260 | 20 to 50 |
| CCn1c2cnccc2c2cc(Cl)cc(-c3ccco3)c21 [Example 124, 6-Chloro-9-ethyl-8-furan-2-yl-9H-pyrido[3,4-b]indole] | 2600 | < 20 |
| CCn1c2c(-c3ccncc3)cc(Cl)cc2c2ccnc(C)c21 [Example 125, 6-Chloro-9-ethyl-1-methyl-8-pyridin-4-yl-9H-pyrido[3,4-b]indole] | 1000 | > 80 |
| FC(F)(F)Cn1c2cnccc2c2cc(Cl)cc(-c3cncnc3)c21 [Example 126, 6-Chloro-8-pyrimidin-5-yl-9-(2,2,2-trifluoro-ethyl)-9H-pyrido[3,4-b]indole] | > 10000 | 20 to 50 |
| FC(F)(F)Cn1c2cnccc2c2cc(Cl)cc(-c3ccncc3)c21 [Example 127, 6-Chloro-8-pyridin-4-yl-9-(2,2,2-trifluoro-ethyl)-9H-pyrido[3,4-b]indole] | 380 | 50 to 80 |
| FC(F)(F)Cn1c2cnccc2c2cc(Cl)cc(-c3ccccc3)c21 [Example 128, 6-Chloro-8-phenyl-9-(2,2,2-trifluoro-ethyl)-9H-pyrido[3,4-b]indole] | 3900 | < 20 |
| FC(F)(F)Cn1c2cnccc2c2cc(Cl)cc(-c3ccc(Cl)cc3)c21 [Example 129, 6-Chloro-8-(4-chloro-phenyl)-9-(2,2,2-trifluoro-ethyl)-9H-pyrido[3,4-b]indole] | 860 | > 80 |
| Cc1nccc2c1[nH]c1c(-c3ccncc3)cc(Cl)cc12 [Example 130, 6-Chloro-1-methyl-8-pyridin-4-yl-9H-pyrido[3,4-b]indole] | 380 | > 80 |

| Compound | EC50 [nM] | Emax [%] |
| --- | --- | --- |
| CCn1c2cnccc2c2cc(Cl)cc(-c3ccc(Cl)cc3)c21 [Example 131, 6-Chloro-8-(4-chloro-phenyl)-9-ethyl-9H-pyrido[3,4-b]indole] | 780 | > 80 |
| Nc1ncc(-c2cc(Cl)cc3c4ccncc4n(CC(F)(F)F)c23)cn1 [Example 132, 5-[6-Chloro-9-(2,2,2-trifluoro-ethyl)-9H-pyrido[3,4-b]indol-8-yl]-pyrimidin-2-ylamine] | 4500 | 20 to 50 |
| CCn1c2cnccc2c2cc(Cl)cc(-c3cncnc3)c21 [Example 133, 6-Chloro-9-ethyl-8-pyrimidin-5-yl-9H-pyrido[3,4-b]indole] | > 10000 | 20 to 50 |
| FC(F)(F)Cn1c2cnccc2c2cc(Cl)cc(-c3ccc(Cl)s3)c21 [Example 134, 6-Chloro-8-(5-chloro-thiophen-2-yl)-9-(2,2,2-trifluoro-ethyl)-9H-pyrido[3,4-b]indole] | > 10000 | < 20 |
| Cn1cc(-c2cc(Cl)cc3c4ccncc4n(CC(F)(F)F)c23)cn1 [Example 135, 6-Chloro-8-(1-methyl-1H-pyrazol-4-yl)-9-(2,2,2-trifluoro-ethyl)-9H-pyrido[3,4-b]indole] | 330 | 50 to 80 |
| FC(F)(F)Cn1c2cnccc2c2cc(Cl)cc(-c3cc(-c4ccccc4)no3)c21 [Example 136, 6-Chloro-8-(3-phenyl-isoxazol-5-yl)-9-(2,2,2-trifluoro-ethyl)-9H-pyrido[3,4-b]indole] | 4100 | 50 to 80 |
| CC(C)Cn1cc(-c2cc(Cl)cc3c4ccncc4n(CC(F)(F)F)c23)cn1 [Example 137, 6-Chloro-8-(1-isobutyl-1H-pyrazol-4-yl)-9-(2,2,2-trifluoro-ethyl)-9H-pyrido[3,4-b]indole] | 1400 | 20 to 50 |
| Cc1nn(C)c(C)c1-c1cc(Cl)cc2c3ccncc3n(CC(F)(F)F)c12 [Example 138, 6-Chloro-9-(2,2,2-trifluoro-ethyl)-8-(1,3,5-trimethyl-1H-pyrazol-4-yl)-9H-pyrido[3,4-b]indole] | > 10000 | < 20 |
| FC(F)(F)Cn1c2cnccc2c2cc(Cl)cc(-c3cnn4ccccc34)c21 [Example 139, 6-Chloro-8-pyrazolo[1,5-a]pyridin-3-yl-9-(2,2,2-trifluoro-ethyl)-9H-pyrido[3,4-b]indole] | > 10000 | < 20 |
| Cc1cc(-c2cc(Cl)cc3c4ccncc4n(CC(F)(F)F)c23)n(C)n1 [Example 140, 6-Chloro-8-(2,5-dimethyl-2H-pyrazol-3-yl)-9-(2,2,2-trifluoro-ethyl)-9H-pyrido[3,4-b]indole] | 910 | 20 to 50 |
| Clc1cc(-c2cncnc2)c2[nH]c3cnccc3c2c1 [Example 141, 6-Chloro-8-pyrimidin-5-yl-9H-pyrido[3,4-b]indole] | > 10000 | < 20 |
| CCn1c2cnccc2c2cc(Cl)cc(-c3ccc(OC)cc3)c21 [Example 142, 6-Chloro-9-ethyl-8-(4-methoxy-phenyl)-9H-pyrido[3,4-b]indole] | 520 | > 80 |
| CCn1c2cnccc2c2cc(Cl)cc(-c3ccc(C)cc3)c21 [Example 143, 6-Chloro-9-ethyl-8-p-tolyl-9H-pyrido[3,4-b]indole] | 970 | 20 to 50 |
| FC(F)(F)Cn1c2cnccc2c2cc(Cl)cc(-c3cn[nH]c3)c21 [Example 144, 6-Chloro-8-(1H-pyrazol-4-yl)-9-(2,2,2-trifluoro-ethyl)-9H-pyrido[3,4-b]indole] | 580 | < 20 |
| CCn1c2cnccc2c2cc(Cl)cc(-c3ccccc3Cl)c21 [Example 145, 6-Chloro-8-(2-chloro-phenyl)-9-ethyl-9H-pyrido[3,4-b]indole] | 480 | < 20 |
| CCn1c2cnccc2c2cc(Cl)cc(-c3cccc(OC)c3)c21 [Example 146, 6-Chloro-9-ethyl-8-(3-methoxy-phenyl)-9H-pyrido[3,4-b]indole] | 41 | < 20 |
| CCn1c2c(-c3ccc(OC)cc3)cc(Cl)cc2c2ccnc(C)c21 [Example 147, 6-Chloro-9-ethyl-8-(4-methoxy-phenyl)-1-methyl-9H-pyrido[3,4-b]indole] | 840 | > 80 |
| CCn1c2c(-c3ccc(Cl)cc3)cc(Cl)cc2c2ccnc(C)c21 [Example 148, 6-Chloro-8-(4-chloro-phenyl)-9-ethyl-1-methyl-9H-pyrido[3,4-b]indole] | 46 | > 80 |
| Cc1ccc(-c2cc(Cl)cc3c2[nH]c2c(C)nccc23)cc1 [Example 150, 6-Chloro-1-methyl-8-p-tolyl-9H-pyrido[3,4-b]indole] | 510 | > 80 |
